# Source: PubChem BioAssay (NCI)
# Values joined by “and” are separate entries in the source; they are usually repeats but may differ in a detail not shown here. Equal entries are not always repeated.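 Step 1: Grow cells in 96-well plates. Step 2: Expose to compound for 48 hours at 5 concentrations. Step 3: Interpolate endpoints linearly; if unreached, use highest concentration. GI50 is the concentration that inhibits growth by half. TGI is the concentration that stops growth completely.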
# Legend:
# Test in all cases: NCI tumour cell line growth inhibition, 48 h
# 786-0 renal = test system: 786-0 renal
# HOP-62 NSCLC = test system: HOP-62 NSCLC
# HS 578T breast = test system: HS 578T breast
# MCF7 breast = test system: MCF7 breast
# OVCAR-5 ovarian = test system: OVCAR-5 ovarian
# SF-268 CNS = test system: SF-268 CNS
# SK-OV-3 ovarian = test system: SK-OV-3 ovarian
# SNB-75 CNS = test system: SNB-75 CNS
# T-47D breast = test system: T-47D breast
# TK-10 renal = test system: TK-10 renal
Structure (SMILES),GI50 (786-0 renal),TGI (786-0 renal) [µM],GI50 (HOP-62 NSCLC),TGI (HOP-62 NSCLC) [µM],GI50 (HS 578T breast),TGI (HS 578T breast) [µM],GI50 (MCF7 breast),TGI (MCF7 breast) [µM],GI50 (OVCAR-5 ovarian),TGI (OVCAR-5 ovarian) [µM],GI50 (SF-268 CNS),TGI (SF-268 CNS) [µM],GI50 (SK-OV-3 ovarian) [µM],TGI (SK-OV-3 ovarian) [µM],GI50 (SNB-75 CNS),TGI (SNB-75 CNS) [µM],GI50 (T-47D breast),TGI (T-47D breast),GI50 (TK-10 renal),TGI (TK-10 renal) [µM]
Nc1nc(Nc2ccccc2)c2ncn(Cc3cc4c(cc3Br)OCO4)c2n1,0.0659 µM,16.2,0.0675 µM,7.65,0.075 µM,> 94.9,< 0.01 µM,31.9,0.282 µM,> 80.3,0.128 µM,45.3,0.0373,2.36,0.0623 µM,25.3,< 0.01 µM,21.4 µM,0.114 µM,18.1
O=C(Nc1cccc(Cl)c1)c1cc2ccccc2cc1O,3.6 µM and 3.12 µM,> 100,2.8 µM and 2.47 µM,,2.12 µM and 3.42 µM,,2.66 µM and 2.12 µM,> 100,6.59 µM and 1.98 µM,> 100,2.58 µM and 2.57 µM,> 100,1.23,4.95,1.62 µM and 1.55 µM,> 100,1.88 µM and 1.73 µM,8.92 µM and 6.82 µM,5.58 µM and 5.82 µM,> 100
Nc1c(C(=O)N/N=C/c2ccc(-c3ccc(Cl)cc3)o2)cnn1-c1ccnc2c(C(F)(F)F)cccc12,> 100 µM,> 100,> 100 µM,> 100,> 100 µM,> 100,> 100 µM,> 100,> 100 µM,> 100,> 100 µM,> 100,> 100,> 100,65.4 µM,> 100,42.4 µM,> 100 µM,> 100 µM,> 100
CC(=O)Oc1ccccc1C(=O)N=C1[Se]CCN1C(=O)c1ccccc1OC(C)=O,1.46 µM,2.8,0.546 µM,1.88,0.507 µM,3.02,1.12 µM,5.06,0.839 µM,6.11,0.483 µM,1.79,1.05,2.82,1.25 µM,3,1.84 µM,5.06 µM,0.491 µM,1.87
CC(C)c1ccccc1S(=O)c1ccccc1C(C)(C)O (stereo not drawn),,> 100,,48.7,,> 100,,> 100,,> 100,,> 100,,> 100,,> 100,,> 100 µM,,> 100
N#CC1(C2SCCS2=O)C2=C(C(=O)c3ccccc3C2=O)N2CCCC21 (stereo not drawn),,18.7,,14.9,,12.8,,3.73,,9.39,,11.2,,51.7,,8.04,,8.16 µM,,43.7
Cc1c[n+](Cc2ccc3ccccc3c2)cn1Cc1ccc2ccccc2c1,1.71 µM,3.63,1.61 µM,3.8,2.22 µM,6.65,1.67 µM,3.5,1.81 µM,3.95,1.36 µM,2.88,2.16,6.12,1.09 µM,2.51,0.371 µM,2.75 µM,1.82 µM,3.73
COc1cc(/C=C2\C(=O)Nc3ccc(F)cc32)cc(OC)c1OC,31.2 µM,> 100,35.8 µM,> 100,30.4 µM,> 100,4.73 µM,> 100,> 100 µM,> 100,28.3 µM,> 100,> 100,> 100,9.18 µM,79.3,7.2 µM,> 100 µM,68.5 µM,> 100
COc1ccc(-n2cc(-c3ccc(Cl)c(Cl)c3)nc2SCc2cccc(C#N)c2)cc1,11.8 µM,40.2,24.7 µM,> 100,18.4 µM,> 100,34.5 µM,> 100,94.1 µM,> 100,37 µM,> 100,26.2,> 100,17 µM,53.4,5.33 µM,74 µM,44.6 µM,> 100
O=C1/C(=C\c2cccn2Cc2ccccc2)c2ccccc2N1c1c(Cl)cccc1Cl,> 100 µM,> 100,> 100 µM,> 100,> 100 µM,> 100,0.0898 µM,> 100,4.37 µM,> 100,> 100 µM,> 100,> 100,> 100,> 22.9 µM,> 100,0.266 µM,1.93 µM,0.978 µM,> 100
NC(=O)C(=CNc1nc(-c2ccc(Cl)c(Cl)c2)cs1)C(N)=O,> 100 µM,> 100,> 100 µM,> 100,26.9 µM,> 100,80 µM,> 100,> 100 µM,> 100,71.7 µM,> 100,> 100,> 100,> 100 µM,> 100,> 100 µM,> 100 µM,> 100 µM,> 100
O=C(Nc1cccc(Cl)c1Cl)c1cccc(NC2=C(Cl)C(=O)N(Cc3ccccc3)C2=O)c1,49.8 µM,> 100,> 100 µM,> 100,28.7 µM,> 100,11.3 µM,> 100,89.5 µM,> 100,27.7 µM,> 100,> 100,> 100,> 100 µM,> 100,> 100 µM,> 100 µM,> 100 µM,> 100
COC(=O)[C@@H](NC(=O)[C@@H](OC)[C@@H]1Cc2cc3cc(OC4CC(OC5CC(O)C(O)C(C)O5)C(O)C(C)O4)c(C)c(O)c3c(O)c2C(=O)[C@H]1OC1CC(OC2CC(OC3CC(C)(O)C(O)C(C)O3)C(O)C(C)O2)C(O)C(C)O1)C(C)C (stereo partly drawn),0.175 µM,5.98,0.0824 µM,> 32.5,0.114 µM,1.39,0.0538 µM,> 32.5,0.265 µM,10.8,0.172 µM,> 32.5,0.271,> 32.5,0.0849 µM,1.46,0.202 µM,> 32.5 µM,0.208 µM,> 32.5
C#C[C@]1(O)CC[C@H]2[C@@H]3CC=C4c5sc(Nc6ccccc6)nc5CC[C@]4(C)[C@H]3CC[C@@]21C,0.655 µM,2.12,2.19 µM,10.7,0.504 µM,5.23,1.57 µM,4.28,2.44 µM,9.68,2.19 µM,10.1,2.37,10.6,0.858 µM,7.41,2.05 µM,6.94 µM,3.79 µM,13.2
COc1cc(NC(C)CCCN)c2nccc(C)c2c1OC (stereo not drawn),20.3 µM,55.7,11.1 µM,28,8.5 µM,35.4,0.372 µM,1.71,16.1 µM,42.1,17.9 µM,48.3,18.6,57.1,14.1 µM,29.4,4.04 µM,24.1 µM,19.8 µM,45.8
CSC1(CC(=O)N(C)C)C(=O)Nc2ccccc21 (stereo not drawn),,> 100,,> 100,,> 100,,> 100,,> 100,,> 100,,> 100,,> 100,,> 100 µM,,> 100
N#CC(C(=O)/C(=N/Nc1nc(=S)[nH]n1N)C(C#N)c1ccccc1)c1ccccc1 (stereo not drawn),,> 100,,> 100,,> 100,,> 100,,> 100,,> 100,,> 100,,> 100,,> 100 µM,,> 100
CCOC(=O)N1CCN(C(=O)c2ccc(C(F)(F)F)nc2Nc2cc(Cl)ccc2C)CC1,41.1 µM,> 100,25.8 µM,> 100,23.9 µM,91.2,14.7 µM,43,39.4 µM,> 100,74.8 µM,> 100,> 100,> 100,1.41 µM,24.1,> 100 µM,> 100 µM,17.4 µM,88.9
O=C(O)c1cc(O)c2c(c1)C(C1c3cc(C(=O)O)cc(O)c3C(=O)c3c(OC4OC(CO)C(O)C(O)C4O)cccc31)c1cccc(OC3OC(CO)C(O)C(O)C3O)c1C2=O (stereo not drawn),> 100 µM,> 100,> 100 µM,> 100,> 100 µM,> 100,> 100 µM,> 100,> 100 µM,> 100,> 100 µM,> 100,> 100,> 100,> 100 µM,> 100,> 100 µM,> 100 µM,> 100 µM,> 100
COc1ccc(CNc2c3ccccc3nc3ccccc23)cc1OC,2.78 µM,12.1,2.96 µM,13.3,2.64 µM,10.1,2.24 µM,6.66,2.56 µM,11,3.21 µM,13,2.44,8.33,2.39 µM,11.3,3.43 µM,14.1 µM,2.34 µM,8.44
O/N=C\c1c(O)ccc2ccccc12,,> 100,,> 100,,> 100,,> 100,,> 100,,> 100,,> 100,,> 100,,> 100 µM,,> 100
COc1cc2cn3c4ccc(O)cc4[nH]c(=O)c3c2cc1OC,0.0715 µM,2.02,0.0338 µM,1.81,0.0702 µM,> 100,0.0341 µM,1.62,0.269 µM,2.36,< 0.01 µM,1.55,0.0367,1.95,0.0197 µM,1.47,0.0199 µM,2.05 µM,0.0453 µM,1.97
COc1ccc(/C=c2/sc3n(c2=O)C(c2ccc(OC)c(OC)c2)C2=C(N=3)c3cc(F)ccc3OC2)cc1 (stereo not drawn),42.1 µM,> 100,37.7 µM,> 100,27 µM,> 87.5,23.6 µM,> 100,52.8 µM,> 100,15.5 µM,> 100,> 57,> 100,16.1 µM,98.2,4.42 µM,39.6 µM,29 µM,> 87.6
Cc1n(Cc2ccc3ccccc3c2)cc[n+]1Cc1ccc2ccccc2c1,2.25 µM,8.52,1.6 µM,8.35,1.6 µM,11.3,1.1 µM,3.33,1.5 µM,5.81,1.14 µM,8.69,1.81,7.38,0.626 µM,6.14,0.438 µM,5.12 µM,1.77 µM,5.1
Cc1c(C2Nc3ccccc3C2C)[nH]c2ccccc12 (stereo not drawn),12 µM,31.5,12.1 µM,26.1,16.1 µM,49.7,4.26 µM,27.8,14.8 µM,30.9,12.8 µM,45.6,13.1,29.9,5.06 µM,29.8,6.16 µM,24 µM,17.4 µM,34.2
O=C(O)c1ccccc1-c1ccccc1C(=O)Nc1ccc2c(c1)Cc1cc(F)ccc1-2,,> 100,,87.4,,> 100,,85.5,,88.1,,> 100,,> 100,,> 100,,> 100 µM,,90.9
